# Source: US9181234B2, “Antibacterial compounds” (priority 2010, dated 2015)
# Like-named read-outs stand apart in the source and are kept apart here.
# How the values were obtained:
# [1] = tested on: Streptococcus pyogenes (Isolate ID ATCC 51339); experiment: Antibacterial activity, MIC, S. pyogenes; assay type: cell-based; conditions: Streptococcus pyogenes, ATCC51339, Gram positive strain; broth microdilution or agar dilution
# Method in brief: (§1)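 MICs determined by broth microdilution or agar dilution according to CLSI guidelines (M7-A7).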
# [2] = tested on: Enterococcus faecalis (Isolate ID ATCC 29212); experiment: Antibacterial activity, MIC, E. faecalis; assay type: cell-based; conditions: Enterococcus faecalis, ATCC29212; Gram positive strain; broth microdilution or agar dilution
# Method in brief: as §1
# [3] = Pharmacokinetic assay, IV and oral PK profile, rat; assay type: in vivo
# Procedure: Pharmacokinetic Assays: Determination of PK Profile
# The pharmacokinetic profiles of compounds were determined by measuring the compound concentration in plasma by LC/MS/MS following a single intravenous or peroral administration of the compounds at a dose of 3 mg/kg. The concentrations described are the mean plasma concentrations at each time point from three animals. Intravenous dose formulation was administered as a single bolus dose through the tail vein. Oral dose formulation was administered to animals by an oral gavage needle. In both cases the dose volume was 5.0 mL/kg. Blood was collected from rats using a jugular vein catheter and from anesthetized mice through a capillary guided into the retro-orbital plexus. The collected blood was centrifuged to obtain plasma and the compounds extracted into methanol prior to determining the compound concentration by LC/MS/MS. The results for selected compounds of the invention are shown in FIGS. 2 to 8 where the X axis denotes time (hours) and the Y axis denotes plasma concentration (ng/mL). The Cmaxoral (μg/mL), AUCiv (μg·hr/mL), AUCoral (μg.hr/mL) and F(%) values are provided in the following table where Cmaxoral is the maximum oral concentration, AUC is area under the curve for intraveneous (IV) and oral and F (%) represents compound bioavailability as calculated by [AUCoral/AUCiv]×100%.
# physchem = conditions: pH 7.4, aqueous buffer, kinetic from dmso stock
# Method in brief: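 DMSO doubling dilutions were diluted twenty-fold into 100 mM citrate (pH 4), PBS (pH 7.4) or carbonate-bicarbonate (pH 9). After 24 h equilibration at room temperature, absorbance was read at 620 nm. The reported value is the highest concentration without measurable precipitate.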
# [4] = tested on: Haemophilus influenzae (Isolate ID ATCC 49247); experiment: Antibacterial activity, MIC, H. influenzae; assay type: cell-based; conditions: Haemophilus influenzae, ATCC49247; Gram negative strain; broth microdilution or agar dilution
# Method in brief: as §1
# [5] = tested on: Staphylococcus aureus (Isolate ID ATCC 29213); experiment: Antibacterial activity, MIC, S. aureus; assay type: cell-based; conditions: Staphylococcus aureus, ATCC29213, Gram positive strain; broth microdilution or agar dilution
# Method in brief: as §1
# [6] = po, single peroral dose 3 mg/kg, plasma, read-out: AUCoral
# [7] = single peroral dose 3 mg/kg, plasma
# [8] = Solubility Range (maximum solubility)
MIC [1] [µg/mL],MIC [2] [µg/mL],"F (%) bioavailability ([3]; [AUCoral/AUCiv]×100%, 3 mg/kg) [%]","AUC [3, 6] [ng·h/mL]","AUCiv ([3]; single intravenous dose 3 mg/kg, plasma) [ng·h/mL]","Cmaxoral [3, 7] [ng/mL]",solubility at 24 h (physchem; Max Solubility) [µg/mL],solubility at 24 h (physchem; Solubility (pH 7.4)) [µg/mL],solubility at 24 h (physchem; Solubility Range) [µg/mL],solubility at 24 h (physchem; [8]) [µg/mL],MIC [4] [µg/mL],MIC [5] [µg/mL],"bioavailability ([3]; plasma, po, [AUCoral/AUCiv]×100%, 3 mg/kg, read-out: F (%) bioavailability) [%]","AUC ([3]; single intravenous dose 3 mg/kg, plasma, read-out: AUCiv) [ng·h/mL]",SMILES
≤ 0.25,≤ 0.25,48,8300,17400,1800,≥ 800,≥ 800,> 800,> 800,1 to 16,≤ 0.25,–,–,"CCNC(=O)Nc1nc2cc(-c3cnc(N4CCC(C)(C(=O)O)CC4)nc3)cc(-c3ccccn3)c2s1 [Compound 1, 1-[5-[2-(ethylcarbamoylamino)-7-(2-pyridyl)-1,3-benzothiazol-5-yl]pyrimidin-2-yl]-4-methyl-piperidine-4-carboxylic acid]"
0.25 to 1,≤ 0.25,–,1000,–,400,–,≥ 800,> 800,–,1 to 16,≤ 0.25,14.3,7100,CCNC(=O)Nc1nc2cc(-c3cnc(N4CCC(C)(C(=O)O)CC4)nc3)cc(-c3cscn3)c2s1 [Compound 21]
≤ 0.25,≤ 0.25,–,–,–,–,≥ 800,≥ 800,> 800,> 800,1 to 16,≤ 0.25,–,–,CCNC(=O)Nc1nc2cc(-c3cnc(N4CCC(C)(C(=O)O)CC4)nc3)cc(C#Cc3nccs3)c2s1 [Compound 156]
≤ 0.25,≤ 0.25,–,–,–,–,≥ 800,≥ 800,> 800,> 800,0.25 to 1,≤ 0.25,–,–,CCNC(=O)Nc1nc2cc(-c3cnc(N4CCC(C)(C(=O)O)CC4)nc3)cc(C#Cc3cnccn3)c2s1 [Compound 157]
1 to 16,1 to 16,–,–,–,–,≥ 800,≥ 800,> 800,> 800,1 to 16,1 to 16,–,–,CCNC(=O)Nc1nc2cc(-c3cnc(CN4CCC(C)(C(=O)O)CC4)nc3)cc(-c3ccccn3)c2s1 [Compound 160]
≤ 0.25,≤ 0.25,–,–,–,–,≥ 800,≥ 800,> 800,> 800,0.25 to 1,0.25 to 1,–,–,CCNC(=O)Nc1nc2cc(-c3cnc(N4CCCC4(C)C(=O)O)nc3)cc(-c3ccccn3)c2s1 (stereo not drawn) [Compound 163]
0.25 to 1,1 to 16,–,–,–,–,–,≥ 800,> 800,–,> 16,1 to 16,–,–,CCNC(=O)Nc1nc2cc(-c3cnc(N4CCC(C(=O)O)(C(F)(F)F)C4)nc3)cc(-c3ccccn3)c2s1 (stereo not drawn) [Compound 164]
≤ 0.25,≤ 0.25,–,–,–,–,–,≥ 800,> 800,–,1 to 16,≤ 0.25,–,–,CCNC(=O)Nc1nc2cc(-c3cnc(N4CC5CCCC5(C(=O)O)C4)nc3)cc(-c3ccccn3)c2s1 (stereo not drawn) [Compound 165]
≤ 0.25,≤ 0.25,–,–,–,–,–,12.5,12.5 to 400,–,> 16,1 to 16,–,–,CCNC(=O)Nc1nc2cc(-c3cnc(N4CCC(NC(=O)OC(C)(C)C)(C(=O)OC)CC4)nc3)cc(-c3ccccn3)c2s1 [Compound 167]
1 to 16,≤ 0.25,–,–,–,–,–,25,12.5 to 400,–,> 16,0.25 to 1,–,–,CCNC(=O)Nc1nc2cc(-c3cnc(N4CCC(N)(C(=O)OC)CC4)nc3)cc(-c3ccccn3)c2s1 [Compound 168]
≤ 0.25,0.25 to 1,–,–,–,–,–,6.25,< 12.5,–,1 to 16,1 to 16,–,–,CCNC(=O)Nc1nc2cc(-c3cnc(N4CCC(C)(C(=O)OC)CC4)nc3)cc(-c3ccccn3)c2s1 [Compound 169]
0.25 to 1,≤ 0.25,–,–,–,–,–,6.25,< 12.5,–,> 16,0.25 to 1,–,–,CCNC(=O)Nc1nc2cc(-c3cnc(N4CCC(=O)C(C)(C(=O)OC)C4)nc3)cc(-c3ccccn3)c2s1 (stereo not drawn) [Compound 170]
